Measurements: US10125100B2, “Kinase inhibitors” (Respivert Limited, priority 2014, dated 2018)

Columns and labels:
c-Src = c-Src (Homo sapiens (Human), UniProt P12931); experiment: c-Src enzyme inhibition, Z-LYTE FRET; type: biochemical
How it was run: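 Z-LYTE FRET peptide phosphorylation read as donor coumarin over acceptor fluorescein ratio after 1 hr protease development. Compounds (1–0.001 μg/mL) preincubated 2 hr at RT with enzyme; ATP solutions 60 μM for Syk, 800 μM for c-Src; kinase reaction 1 hr.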

GSK 3α = GSK 3α (Homo sapiens (Human), UniProt P49840); experiment: GSK 3α enzyme inhibition (Method 2), Z-LYTE FRET; type: biochemical; settings: read-out: IC50 Values for Enzyme Inhibition GSK3α
Description: The enzyme inhibitory activities of compounds disclosed herein are determined by FRET using synthetic peptides labelled with both donor and acceptor fluorophores (Z-LYTE, Invitrogen Ltd., Paisley, UK).
The following two assay variants can be used for determination of GSK 3α inhibition.
The inhibitory activities of compounds of the invention against the GSK 3α enzyme isoform (Invitrogen), are evaluated by determining the level of activation/phosphorylation of the target peptide. The GSK3-α protein (500 ng/mL, 2.5 μL) is mixed with the test compound (2.5 μL at either 4 μg/mL, 0.4 μg/mL, 0.04 μg/mL, or 0.004 μg/mL) for 2 hr at RT. The FRET peptide (8 μM, 2.5 μL), which is a phosphorylation target for GSK3α, and ATP (40 μM, 2.5 μL) are then added to the enzyme/compound mixture and the resulting mixture incubated for 1 hr. Development reagent (protease, 5 μL) is added for 1 hr prior to detection in a fluorescence microplate reader (Varioskan® Flash, ThermoFisher Scientific).
In all cases, the site-specific protease cleaves non-phosphorylated peptide only and eliminates the FRET signal. Phosphorylation levels of each reaction are calculated using the ratio of coumarin emission (donor) over fluorescein emission (acceptor), for which high ratios indicate high phosphorylation and low ratios indicate low phosphorylation levels.
This method follows the same steps as Method 1 above, but utilises a shorter period of mixing of the test compound (105 minutes instead of 2 hours) with the GSK3-α protein. In addition, the concentrations of test compound employed are either 10 μg/mL, 1 μg/mL, 0.1 μg/mL, or 0.01 μg/mL

mitosis in PBMCs = experiment: (g) Cell mitosis assay; type: cell-based; settings: Homo sapiens, PBMC, 5 μg/mL
How it was run: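 Healthy-donor PBMCs stimulated with 2% PHA for 48 hr, then exposed to test compounds at varying concentrations for 20 hr; demecolcine (0.1 μg/mL) added 2 hr before collection for metaphase arrest. Cells fixed/permeabilized, stained with anti-phospho-histone 3 and propidium iodide; mitotic cells counted by flow cytometry gating on lymphocytes.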

[1] = test system: patients with severe Crohn's disease; settings: over 8 weeks; cited from earlier work
Syk = Syk (Homo sapiens (Human), UniProt P43405); experiment: Syk enzyme inhibition, Z-LYTE FRET; type: biochemical
How it was run: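 Syk or c-Src enzyme (3000 or 2000 ng/mL solutions) was preincubated 2 h at RT with compound solutions at 1, 0.1, 0.01 or 0.001 µg/mL. Z-LYTE FRET peptide (8 µM solution) and ATP (800 µM solution for c-Src, 60 µM for Syk) were then added for 1 h, followed by protease development for 1 h. Phosphorylation was read as the coumarin/fluorescein emission ratio.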

[2] = test system: rheumatoid arthritis patients; settings: cited from earlier work
Crohn's patients = settings: transient, returning to baseline by week 8; cited from earlier work

Sequence of c-Src (P12931 whole entry, looked up): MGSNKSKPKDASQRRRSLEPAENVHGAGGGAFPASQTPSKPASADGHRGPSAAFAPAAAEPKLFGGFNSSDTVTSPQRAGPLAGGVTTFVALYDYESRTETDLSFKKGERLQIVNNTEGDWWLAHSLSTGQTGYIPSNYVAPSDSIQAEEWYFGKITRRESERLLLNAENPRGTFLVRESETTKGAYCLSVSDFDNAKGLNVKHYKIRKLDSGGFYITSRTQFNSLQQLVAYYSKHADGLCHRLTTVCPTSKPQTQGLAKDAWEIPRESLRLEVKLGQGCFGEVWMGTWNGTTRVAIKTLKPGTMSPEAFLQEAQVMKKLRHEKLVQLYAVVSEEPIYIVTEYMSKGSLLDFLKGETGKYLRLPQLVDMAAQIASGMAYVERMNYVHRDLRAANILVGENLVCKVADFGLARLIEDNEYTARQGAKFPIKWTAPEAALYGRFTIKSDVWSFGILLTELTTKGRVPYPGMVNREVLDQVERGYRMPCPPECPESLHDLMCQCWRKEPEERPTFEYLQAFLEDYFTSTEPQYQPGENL
Sequence of GSK 3α (P49840 whole entry): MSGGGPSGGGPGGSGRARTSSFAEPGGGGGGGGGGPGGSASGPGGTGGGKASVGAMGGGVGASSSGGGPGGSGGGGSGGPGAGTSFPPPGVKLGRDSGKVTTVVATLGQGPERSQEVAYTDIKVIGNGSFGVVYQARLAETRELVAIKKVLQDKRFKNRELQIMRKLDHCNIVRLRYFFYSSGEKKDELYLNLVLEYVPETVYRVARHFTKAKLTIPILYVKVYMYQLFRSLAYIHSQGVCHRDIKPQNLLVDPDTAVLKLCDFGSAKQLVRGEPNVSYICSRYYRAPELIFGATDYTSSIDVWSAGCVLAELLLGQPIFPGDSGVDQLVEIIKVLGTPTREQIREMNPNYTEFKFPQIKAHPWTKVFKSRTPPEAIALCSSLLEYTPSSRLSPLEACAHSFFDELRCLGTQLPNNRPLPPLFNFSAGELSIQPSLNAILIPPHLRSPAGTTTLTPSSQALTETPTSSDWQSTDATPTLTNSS

Row | IC50 (c-Src) [µM] | IC50 (GSK 3α) [µM] | IC50 (Syk) [µM] | SMILES | inhibition at 5 µg/mL (mitosis in PBMCs) [%] | also measured
1 | 0.016 | 4 | – | COc1cc(Nc2cc(Oc3ccc(NC(=O)Nc4cc(C(C)(C)C)cc(NS(C)(=O)=O)c4OC)c4ccccc34)ccn2)ccc1C(=O)NCCN1CCN(C)CC1 [17(a), 4-[[4-[[4-[[5-tert-butyl-3-(methanesulfonamido)-2-methoxy-phenyl]carbamoylamino]-1-naphthyl]oxy]-2-pyridyl]amino]-2-methoxy-N-[2-(4-methylpiperazin-1-yl)ethyl]benzamide] | 75.6 | –
2 | – | – | – | C/C(=N\N=C(N)N)c1cc(NC(=O)CCCCCCCCC(=O)Nc2cc(/C(C)=N/N=C(N)N)cc(/C(C)=N/N=C(N)N)c2)cc(/C(C)=N/N=C(N)N)c1.Cl.Cl.Cl.Cl [CNI-1493] | – | clinical score [1]: significant improvement in clinical score
3 | 0.017 | 2.75 | 0.105 | COc1cc(Nc2cc(Oc3ccc(NC(=O)Nc4cc(C(C)(C)C)cc(NS(C)(=O)=O)c4OC)c4ccccc34)ccn2)ccc1C(=O)NCCCN1CC[S+]([O-])CC1 [17(ag), 4-[[4-[[4-[[5-tert-butyl-3-(methanesulfonamido)-2-methoxy-phenyl]carbamoylamino]-1-naphthyl]oxy]-pyridyl]amino]-2-methoxy-N-[3-(1-oxo-1,4-thiazan-4-yl)propyl]benzamide] | 51.8 | –
4 | – | – | – | COc1cc(Nc2ncc(F)c(Nc3ccc4c(n3)N(COP(=O)(O)O)C(=O)C(C)(C)O4)n2)cc(OC)c1OC [Fostamatinib] | – | clinical outcome [2]: improved clinical outcome; serum levels of IL-6 and MMP-3 [2]: reduced serum levels of IL-6 and MMP-3
5 | 0.02 | 9.19 | 0.057 | COc1cc(Nc2cc(Oc3ccc(NC(=O)Nc4cc(C(C)(C)C)cc(NS(C)(=O)=O)c4OC)c4ccccc34)ccn2)ccc1C(=O)NCCCN1CCS(=O)(=O)CC1 [17(ah), 4-[[4-[[4-[[5-tert-butyl-3-(methanesulfonamido)-2-methoxy-phenyl]carbamoylamino]-1-naphthyl]oxy]-2-pyridyl]amino]-N-[3-(1,1-dioxo-1,4-thiazinan-4-yl)propyl]-2-methoxy-benzamide] | 32.5 | –
6 | – | – | – | Cc1ccc(-n2nc(C(C)(C)C)cc2NC(=O)Nc2ccc(OCCN3CCOCC3)c3ccccc23)cc1 [BIRB796] | – | clinical benefit, C-reactive protein levels (Crohn's patients): improvement in C-reactive protein levels
